Measured values reported in US8486654B2, “Compositions and methods for measuring 3,6-L-AHG transferase activity and 3,6-L-AHG” (Samsung Electronics Co., Ltd., priority 2010, dated 2013).

Test system: 3,6-L-AHG transferase
Test: Quantitative analysis of 3,6-L-AHG with the final active fraction and NADP^+ (absorbance at 339 nm)
Format: biochemical, Saccharophagus degradans
Details: 50 minute reaction, relative concentrations 1, 0.5, 0.25, 0.1 and 0.05 (1 = 20 mg/mL), FIG. 1
Procedure: 7.5 μl of the final active fraction obtained in Preparation Example 2, 0.1 mM of NADP^+, and 50 mM of Tris-HCl (pH 8.0) are mixed to prepare 100 μl of a composition for quantitative analysis of 3,6-L-AHG.
An amount of 3,6-L-AHG is added to various 100 μl samples of the composition for quantitative analysis of 3,6-L-AHG obtained in Preparation Example 4 to achieve dilution factors for the 3,6-L-AHG of 1, 0.5, 0.25, 0.1 and 0.05 in terms of relative concentrations. A relative 3,6-L-AHG concentration of 1 corresponds to 20 mg/mL. Reaction is carried out for 50 minutes, and then absorbance is measured at 339 nm using a microplate spectrophotometer (Bio-Tek Instruments, Inc.) according to the End-point UV method.

O=C[C@@H](O)[C@@H]1OC[C@H](O)[C@H]1O [3,6-L-AHG, 3,6-anhydro-L-galactose]
amount of NADPH produced versus amount of 3,6-L-AHG in the sample: linearly related
